Assay results reported in US6699894B1, “Methods for treatment of inflammatory bowel disease” (OSI Pharmaceuticals, Inc., priority 2001, dated 2004).
Structures can show the parent of a compound that is named as a salt. Where two headings read alike, the source gives them in different places.

Columns and labels:
[1] = target: T1, GST-cGB-PDE5 fusion protein (Homo sapiens, UniProt O76074); assay: cGMP binding assay with GST-cGB-PDE5 fusion protein; settings: for competition with cGMP binding at high concentration: test substance 100 μM vs cGMP 2 μM
T1 construct: made in house; host or cells: E. coli BL21 (DE3)
Experimental: 5′-3′, Inc. kits for total RNA followed by oligo (dT) column purification of mRNA are used with HT-29 cells. […] It is then cloned into pGEX-5X-3 glutathione-S-transferase (GST) fusion vector (Pharmacia Biotech) with tac promoter, and EcoRI and XhoI cut sites. The fusion vector is then transfected into E. Coli BL21 (DE3) bacteria (Invitrogen). The transfected BL21 bacteria is grown to log phase, and then IPTG is added as an inducer. The induction is carried at 20° C. for 24 hrs. The bacteria are harvested and lysed. The soluble cell lysate is incubated with GSH conjugated Sepharose 4B (GSH-Sepharose 4B). The GST-cGB-PDE5 fusion protein can bind to the GSH-Sepharose beads, and the other proteins are washed off from beads with excessive cold PBS.
Then, the mixture is transferred to Brandel MB-24 cell harvester with GF/B as the filter membrane followed by 2 washes with 10 mL of cold 5 mM potassium buffer(pH 6.8). The membranes are then cut out and transferred to scintillation vials followed by the addition of 1 mL of H2O and 6 mL of Ready Safe™ liquid scintillation cocktail to each vial. The vials are counted on a Beckman LS 6500 scintillation counter.
The quenching by filter membrane or other debris are also calibrated.

dogs [2] = assay: Acute and seven-dose toxicity in dogs (capsules); settings: dog, in vivo
Experimental: Therefore, these dogs were subsequently administered seven consecutive doses of 1000 mg/kg/day.

rats [3] = assay: Acute toxicity study in rats; settings: rat, in vivo
PDE 5 = PDE 5 (Homo sapiens, UniProt O76074); assay: Competitive binding (with cGMP) to PDE5
dogs with IBD = assay: Efficacy trial in dogs with IBD; format: in vivo
Excerpt: IBD in humans is quite similar to IBD in dogs. […] In fact, the IBD treatments used in dogs are very similar to those used in humans, and the success rates are similarly disappointing. The number of dogs with IBD is estimated to be in the millions in the U.S. Feline IBD is also quite common.
The pre-drug history and results achieved with the drug in each dog are as follows: […]

patients = assay: Single, escalating dose human clinical safety trial; format: in vivo; settings: oral, 50 mg BID, 100 mg BID, 200 mg BID and 400 mg BID
rats [4] = assay: Seven-day dose-range finding study in rats; format: in vivo; settings: 7 days
rats [5] = assay: 91-day long-term safety assessment study in rats; format: in vivo
Excerpt: These changes were not associated with any gross clinical abnormality.

rats [6] = assay: 28-day study in rats; format: in vivo
Experimental: A 28-day study in rats was also carried out at 0, 50, 500 and 2000 mg/kg/day.

PDE4 = assay: PDE inhibition: PDE4; format: biochemical; settings: similar protocols
dogs [7] = assay: 91-day oral study in dogs; format: in vivo
PDE1 = assay: PDE inhibition: PDE1; format: biochemical; settings: similar protocols
native bovine PDE5 = native bovine PDE5 (Bos taurus, UniProt Q28156); settings: read-out: Kd of cGMP binding to native bovine PDE5; cited from earlier work
[8] = 28 days, 50, 500 and 2000 mg/kg/day
[9] = 91 days, highest dose group (300 mg/kg/day)

Nc1nc2c(nc(Br)n2[C@@H]2O[C@@H]3COP(=O)(O)O[C@H]3[C@H]2O)c(=O)[nH]1 [Example 8-bromo-cGMP, 8-bromo-cGMP]
competition with cGMP binding at high concentration [1]: can partially compete

Nc1ccn([C@@H]2O[C@@H]3COP(=O)(O)O[C@H]3[C@H]2O)c(=O)n1 [cCMP]
competition with cGMP in binding of GST-cGB-PDE5 ([1]; 3H-cGMP 2 μM, 22° C., 1 hour): did not compete

CSc1ccc(/C=C2/C(C)=C(CC(=O)O)c3cc(F)ccc32)cc1 [Sulindac sulfide, sulindac sulfide]
competition with cGMP in binding of GST-cGB-PDE5 ([1]; 3H-cGMP 2 μM, 22° C., 1 hour): None of the PDE5 inhibitors showed any competition with cGMP

O=c1ccn([C@@H]2O[C@@H]3COP(=O)(O)O[C@H]3[C@H]2O)c(=O)[nH]1 [cUMP]
competition with cGMP in binding of GST-cGB-PDE5 ([1]; 3H-cGMP 2 μM, 22° C., 1 hour): did not compete

CC1=C(CC(=O)O)c2cc(F)ccc2/C1=C\c1ccc(S(C)(=O)=O)cc1 [exisulind]
competition with cGMP in binding of GST-cGB-PDE5 ([1]; 3H-cGMP 2 μM, 22° C., 1 hour): None of the PDE5 inhibitors showed any competition with cGMP

O=C([O-])C1CCN(c2nc(NCc3ccc4c(c3)OCO4)c3cc(Cl)ccc3n2)CC1.[Na+] [Example E4021]
competition with cGMP in binding of GST-cGB-PDE5 ([1]; 3H-cGMP 2 μM, 22° C., 1 hour): None of the PDE5 inhibitors showed any competition with cGMP

Nc1ncnc2c1ncn2[C@@H]1O[C@@H]2COP(=O)(O)O[C@H]2[C@H]1O [Cyclic AMP]
competition with cGMP in binding of GST-cGB-PDE5 [1]: did not compete

CCCOc1ccccc1-c1nc2nn[nH]c2c(=O)[nH]1 [zaprinast]
competition with cGMP in binding of GST-cGB-PDE5 ([1]; 3H-cGMP 2 μM, 22° C., 1 hour): None of the PDE5 inhibitors showed any competition with cGMP

CC1=C(CC(=O)NCc2ccccc2)c2cc(F)ccc2/C1=C\c1ccncc1 [Example 38, (Z)-5-Fluoro-2-Methyl-(4-Pyridylidene)-3-(N-Benzyl)Indenylacetamide Hydrochloride]
signs of toxicity (dogs [2]; 1000 mg/kg): no signs of toxicity | signs of drug-related effects (dogs [2]; 1000 mg/kg/day): At no time in either dosing phase were any obvious signs of drug-related effects observed | binding to the cGMP binding sites of GST-cGB-PDE5 / PDE5 [1]: does not bind to the cGMP-binding site of PDE5 | acute toxicity on a single-dose basis (rats [3]): not acutely toxic | body weight gain (rats [3]; ip, 1000 mg/kg): reduced body weight gain | necropsy finding (rats [3]; ip, 1000 mg/kg): mesenteric adhesions seen in some animals | body weight gains (rats [3]; po, 2000 mg/kg): slightly reduced | competitive (with cGMP) binding to PDE 5 (PDE 5): does competitively (with cGMP) bind to PDE 5 | body weight regained, Dog #1 (dogs with IBD; Dog #1, 12 weeks of 800 mg BID): at least 13 lbs. | histopathological change, Dog #1 (dogs with IBD; Dog #1, 12 weeks of 800 mg BID): significant histopathological improvement | body weight, Dog #1 (dogs with IBD; Dog #1, Month 8 (start), after 12 weeks of treatment, 46 lbs at Month 3 (middle)): 60 lbs | small intestine histopathology after treatment, Dog #1 (dogs with IBD; Dog #1, after 12 weeks of treatment, FIGS. 2 and 4): closely mimics normal canine small intestinal tissue | blood protein levels, Dog #2 (dogs with IBD; Dog #2, after 7 weeks 400 mg BID): returned to normal | blood protein levels, Dog #3 (dogs with IBD; Dog #3, 400 mg BID): gradually returned to within normal limits | stool, Dog #4 (dogs with IBD; Dog #4, after 7 weeks 800 mg BID, owner report): normal size stool with no mucus | outcome, Dog #6 (dogs with IBD; after 7 weeks 800 mg BID, late stage abdominal neoplastic disease discovered post-mortem): Euthanized | clinical status, Dog #5 (dogs with IBD; chronic IBD, 7 weeks 800 mg BID without conventional IBD treatments): significantly improved and completely normal | clinical status, Dog #4 (dogs with IBD; chronic IBD, conventional therapy withdrawn, 7 weeks 800 mg BID): completely clinically normal with no signs of IBD | stools, Dog #7 (dogs with IBD; chronic IBD, tylosin stopped, after one week on drug, then withdrawn by owner): normal stools began to be formed | clinical status, Dog #2 (dogs with IBD; moderate IBD (plasmacytic enteritis), two weeks conventional therapy, then 7 weeks 400 mg BID alone): Clinically normal | clinical status, Dog #3 (dogs with IBD; protein-losing enteropathy with IBD, 7 weeks 400 mg BID with intermittent metronidazole, no prednisone): clinically normal | clinical status in first 30 days, Dog #6 (dogs with IBD; severe IBD, conventional treatment withdrawn, 800 mg BID, first 30 days, owner report): playful, active and clinically normal | clinical status, Dog #1 (dogs with IBD; severe lymphoplasmacytic enteritis, 6 weeks conventional therapy plus 800 mg BID, then 6 weeks 800 mg BID alone): became clinically normal | side effects (patients): no significant side effects at any dose | signs of toxicity (rats [4]; 50 mg/kg/day): no observable signs of toxicity | treatment-related effects (rats [4]; 500 mg/kg/day): increase in absolute and relative liver weights in female rats | treatment-related effects (rats [4]; 2000 mg/kg/day): labored breathing and/or abnormal respiratory sounds, decreased weights gains and food consumption in male rats, and increased liver weights in female rats | hematology, blood chemistry, microscopic pathology (rats [4]; any dose level (50, 500, 2000 mg/kg/day)): No hematological or blood chemistry changes nor any microscopic pathology changes | clinical biochemistry and hematology (rats [5]; 91 days): no changes in clinical biochemistry and hematology were evident | microscopic finding, follicular cells (rats [5]; 91 days, 500 mg/kg/day): follicular cell hypertrophy | microscopic finding, kidneys (rats [5]; 91 days, 200 and 500 mg/kg/day): increase in accumulation of hyalin droplets in the kidneys | microscopic finding, liver (rats [5]; 91 days, 200 and 500 mg/kg/day): slight hepatocellular hypertrophy | liver and thyroid/parathyroid weights (rats [5]; 91 days, males and females at 200 and 500 mg/kg/day): dose-related trend to increased liver and thyroid/parathyroid weights | toxicological effects overall (rats [5]; oral, 91 consecutive days, 50, 200 and 500 mg/kg/day): did not produce any major toxicological effects | macroscopic tissue changes at necropsy (rats [6]; 28 days): No macroscopic tissue changes | liver weights (rats [6]; 28 days, 2000 mg/kg/day): statistically significant increase | thyroid weights (rats [6]; 28 days, 2000 mg/kg/day): statistically significant increases | body weight changes, ophthalmoscopic examinations, hematological and blood chemistry values and urinalysis (rats [6]; [8]): unremarkable | clinical observations (rats [6]; [8]): no abnormal clinical observations | liver and thyroid weights at the lower doses (rats [6]; 28 days, 50 and 500 mg/kg/day): not statistically significant | histopathological evaluation of tissues (rats [6]; 28 days, generally limited to a small number of animals at 2000 mg/kg/day, one female at 500 mg/kg/day): traces of follicular cell hypertrophy, increased numbers of mitotic figures (suggestive of possible cell proliferation) in the thyroid gland and mild centrilobular hypertrophy in the liver | IC50 (PDE4): 6000 nM | tolerability (dogs [7]; 91 days): well tolerated | feces observation (dogs [7]; 91 days, 150 and 300 mg/kg/day): Orange discoloration of the feces | microscopic alterations of liver (dogs [7]; 91 days, highest dose group): no microscopic alterations | body weights (dogs [7]; [9]): Slightly lowered body weights | liver weights (dogs [7]; [9]): increased liver weights | toxicological effects overall (dogs [7]; oral, 91 consecutive days, 50, 150 and 300 mg/kg/day): no toxicological effects | route of elimination (suggested by feces colour) (dogs [7]; oral, 91 days): most of Compound 38 was being eliminated via the feces | IC50 (PDE1): 3000 nM

CCCCOC1C2OP(=O)(O)OCC2OC1n1cnc2c(N)ncnc21 (stereo not shown) [2′-O-butyl-cAMP]
competition with cGMP in binding of GST-cGB-PDE5 ([1]; 3H-cGMP 2 μM, 22° C., 1 hour): did not compete

O=c1[nH]cnc2c1ncn2[C@@H]1O[C@@H]2COP(=O)(O)O[C@H]2[C@H]1O [Cyclic IMP]
competition with cGMP binding at high concentration [1]: can partially compete

CCCCOC1C2OP(=O)(O)OCC2OC1n1cnc2c(=O)[nH]c(N)nc21 (stereo not shown) [2′-O-butyl-cGMP]
competition with cGMP in binding of GST-cGB-PDE5 ([1]; 3H-cGMP 2 μM, 22° C., 1 hour): did not compete

Nc1nc2c(ncn2[C@@H]2O[C@@H]3COP(=O)(O)O[C@H]3[C@H]2O)c(=O)[nH]1 [cGMP, cyclic 3′,5′-guanosine monophosphate]
binding to the cGMP binding sites of GST-cGB-PDE5 / PDE5 [1]: specifically bound | Kd ([1]; read-out: Kd of cGMP binding to GST-cGB-PDE5, two cGMP binding sites): 1600 ± 200 nM | Kd (native bovine PDE5): 1300 nM
